Results on three compounds are retold here after patent US20150374784A1, “COMPOSITIONS AND METHODS FOR REDUCING GERM CELL DEATH” (Los Angeles Biomedical Research Institute at Harbor-UCLA …, priority 2014, published 2015).

Peptide text beside a SMILES is read from it.

For one data set, the system named is B16 melanoma cells. In kind it is cell-based. The source says:
Furthermore, the autophagy induction of humanin may be related to its apparent effects of enhancing longevity observed in other systems.

The nature of a further data set: in vivo. The conditions noted are these: male, C57BL/6J, mouse, sc, 10 mg/kg BW. Here is the method: The objective of this study was to investigate whether HNG has protective effect on sperm output after multiple doses of CP in mice. Thirty adult male mice (C57BL/6J) were randomized into 4 groups: 1) 5 as control; 2) 5 received daily subcutaneously injection of HNG (10 mg/kg BW); 3) 10 were given 6 doses of CP (150 mg/kg BW) intraperitoneally at 5-day intervals; 4) 10 received both HNG and CP. All mice were killed at 28 days. Plasma HNG and IGF-1 levels were measured by ELISAs. The cauda epididymal sperm count was performed using a hemocytometer.

The test system of a further data set is Leydig cells. As to the kind of experiment: Testosterone of cultured Leydig cells treated with ketoconazole. The data set is classed as cell-based, rat. The conditions noted are these: KTZ 10 mcg/ml, 4 hours, 34° C. Here is the method:
Leydig cells were isolated based on a previously described procedure (Gao, et al., 1996; Klinefelter, et al., 1987; Salva, et al., 2001). Briefly, the testes were decapsulated, and then dissociated with collagenase, dispase, DNase and shaking for 15 min at 34° C. The seminiferous tubules were removed by filtration through 40 μm nylon mesh (BD Falcon, Franklin Lakes, N.J.). Leydig cells were then harvested after centrifugation and purified using a Percoll gradient (GE Healthcare, Uppsala, Sweden) and centrifugation (60 minutes at 20,000 g at 4° C.). Enriched Leydig cells were harvested at densities between 1.065 (red) and 1.075 (blue) g/cm^3 from the percoll gradient. These Leydig cells were washed by diluting the percoll and excluding residual germ cells and other cells using a BSA density gradient with centrifugation. The purity of the Leydig cells was >90%, as determined by histochemical staining for 3β-hydroxysteroid dehydrogenase. The cell viability, as assessed by trypan blue exclusion, was greater than 90%. […]
Testosterone concentrations in plasma, testes, and culture medium were measured by a previously described radioimmunoassay (Lue, et al., 2010) with a minimal detection limit of 0.1 ng/ml. […]

A further data set relates to male germ cells. As to the kind of experiment: TMZ-induced male germ cell apoptosis in SCID mice (TUNEL, Apoptosis Index). In kind it is in vivo, mouse. To be noted: 24 hours after last injection; TMZ 50 mg/Kg BW/day X 5 days; HNG 5 mg/Kg BW/day. On the procedure:
Onco-infertility is a major concern of cancer survivors. In this study, it was investigated whether HNG will prevent chemotherapy (Temozolomide, TMZ, an alkylating agent used clinically to treat brain tumors) induced male germ cell apoptosis in SCID mice bearing subcutaneous implants of human medulloblastoma. DAOY human pediatric medulloblastoma cells ([…] cells/animal) were injected subcutaneously into the right flank of 7-week old male SCID mice. After 3 weeks to allow tumor growth, each group of mice (n=4 to 5/group) received one of the following treatments: 1) vehicle (control); 2) HNG intra-peritoneal (IP) injection (HNG, 5 mg/Kg BW/day, 3 days pretreatment+5 days treatment); 3) TMZ IP injection (TMZ, 50 mg/Kg BW/day X 5 days); 4) TMZ and HNG IP injections (TMZ+HNG). Mice were sacrificed 24 hours after the last injection, subcutaneous tumors were dissected and weighed (FIG. 26) and male germ cell apoptosis was assessed by TUNEL staining and quantified (Apoptosis Index, AI, number of apoptotic germ cell/Sertoli cell, FIG. 27). […] HNG ameliorated TMZ-induced germ cell apoptosis without affecting the chemotherapeutic effect on transplanted medulloblastoma tumor in an immunocompromised mouse model.

Regarding `CC[C@H](C)[C@H](NC(=O)[C@H](CCC(=O)O)NC(=O)CNC(=O)[C@@H](NC(=O)[C@H](CC(C)C)NC(=O)[C@H](CC(C)C)NC(=O)[C@H](CC(C)C)NC(=O)[C@H](CC(C)C)NC(=O)[C@H](CS)NC(=O)[C@H](CO)NC(=O)[C@H](Cc1ccccc1)NC(=O)CNC(=O)[C@H](CCCNC(=N)N)NC(=O)[C@@H]1CCCN1C(=O)[C@H](C)NC(=O)[C@@H](N)CCSC)[C@@H](C)O)C(=O)N[C@@H](CC(=O)O)C(=O)N[C@@H](CC(C)C)C(=O)N1CCC[C@H]1C(=O)N[C@H](C(=O)N[C@@H](CCCCN)C(=O)N[C@@H](CCCNC(=N)N)C(=O)N[C@@H](CCCNC(=N)N)C(=O)N[C@@H](C)C(=O)O)C(C)C` [HNG] (H-MAPRGFSCLLLLTGEIDLPVKRRA-OH; N-terminus and C-terminus assumed), the “cytotoxicity of combined treatment versus doxorubicin treatment alone” value in the data set on B16 melanoma cells is on record as “additive effect on the cytotoxicity”. Moreover, the level at 672 h in “in vivo” came to 80.8 ± 7.8 ng/mL. Consider `CC(=O)N1CCN(c2ccc(OCC3COC(Cn4ccnc4)(c4ccc(Cl)cc4Cl)O3)cc2)CC1` (centres unmarked) [KTZ, ketoconazole, reference compound], for which the “testosterone levels of cultured Leydig cells” value with Leydig cells is recorded as “lowered the testosterone levels significantly”. In the case of `Cn1nnc2c(C(N)=O)ncn2c1=O` [TMZ, Temozolomide], in the data set on male germ cells, the “Apoptosis Index (AI), apoptotic germ cell/Sertoli cell, early+late stages” value was determined as 0.116±0.009 and the “Apoptosis Index (AI), apoptotic germ cell/Sertoli cell, middle stages” value is 0.058±0.006.
